The values that follow come from BindingDB's records for patent US11214574 (Prelude Therapeutics, Incorporated, 2022).

By pIC50 is commonly meant the negative decadic logarithm of the IC50, by convention in mol/L. A low value points to a large IC50.

The target in the assay is Methylosome protein 50/Protein arginine N-methyltransferase 5 (Homo sapiens, UniProt O14744+Q9BQA1). The experiment in a line: Biochemical Assay. Here is the method:
Compounds were solubilized and 3-fold diluted in 100% DMSO. […] Standard reactions were performed in a total volume of 30 μl in assay buffer, with 300 nM histone H4 based AcH4-23 (Anaspec: AS-65002) as substrate. To this was added the PRMT5/MEP50 complex diluted to provide a final assay concentration of 2.5 nM and the compounds were allowed to preincubate for 20 minutes at 37° C. The reaction was initiated by adding S-[3H-methyl]-adenosyl-L-methionine (PerkinElmer: NET155001MC) to final concentration of 1 μM. Following a 30 minutes incubation at 37° C., the reaction was stopped by adding 25 μL of 8M Guanidine HCl. Prepare streptavidin YSI SPA beads (Perkinelmer: RPNQ0012) at 0.3 mg/mL in assay buffer. To each reaction, add 150 μL of SPA beads suspension, and incubated while shaking at room temperature for 30 minutes. The plate was centrifuged at 100×g for 30 second before reading in a scintillation counter. IC50 values were determined by fitting the data to the standard 4 parameters with Hill Slope using GraphPad Prism software.

pIC50: −log10 of the molar value.

Chain of Methylosome protein 50/Protein arginine N-methyltransferase 5 (O14744 whole entry): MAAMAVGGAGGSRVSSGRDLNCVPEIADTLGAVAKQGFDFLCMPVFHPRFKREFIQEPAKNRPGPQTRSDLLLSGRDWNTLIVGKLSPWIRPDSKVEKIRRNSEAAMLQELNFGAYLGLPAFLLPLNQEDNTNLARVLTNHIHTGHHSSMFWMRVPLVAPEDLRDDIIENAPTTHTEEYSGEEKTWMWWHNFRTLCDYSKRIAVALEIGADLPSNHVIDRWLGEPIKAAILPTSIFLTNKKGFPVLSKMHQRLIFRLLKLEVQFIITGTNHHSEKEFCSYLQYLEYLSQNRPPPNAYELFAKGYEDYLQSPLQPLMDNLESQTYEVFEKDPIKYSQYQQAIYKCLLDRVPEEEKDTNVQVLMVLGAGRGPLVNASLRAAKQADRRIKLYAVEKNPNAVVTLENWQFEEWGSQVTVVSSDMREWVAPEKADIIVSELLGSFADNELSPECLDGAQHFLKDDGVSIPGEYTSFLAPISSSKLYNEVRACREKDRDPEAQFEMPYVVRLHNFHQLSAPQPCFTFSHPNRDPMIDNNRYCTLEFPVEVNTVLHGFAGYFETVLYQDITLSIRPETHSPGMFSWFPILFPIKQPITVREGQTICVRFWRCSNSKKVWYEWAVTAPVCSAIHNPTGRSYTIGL
Chain of Methylosome protein 50/Protein arginine N-methyltransferase 5 (Q9BQA1 whole entry): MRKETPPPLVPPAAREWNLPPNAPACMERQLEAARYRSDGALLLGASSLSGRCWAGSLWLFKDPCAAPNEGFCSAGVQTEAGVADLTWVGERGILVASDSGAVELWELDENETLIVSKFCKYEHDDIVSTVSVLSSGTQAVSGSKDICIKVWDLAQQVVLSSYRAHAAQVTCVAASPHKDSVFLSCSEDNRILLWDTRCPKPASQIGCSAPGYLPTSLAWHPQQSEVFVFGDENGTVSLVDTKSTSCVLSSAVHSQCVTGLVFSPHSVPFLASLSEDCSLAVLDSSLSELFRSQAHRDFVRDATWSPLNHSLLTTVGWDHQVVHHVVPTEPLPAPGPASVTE

`Nc1ncnc2c1ccn2[C@@H]1O[C@H]([C@H]2OC(=O)c3cc(Cl)ccc32)[C@@H](O)[C@H]1O` [US11214574, Ex# 1B] had a pIC50 of 6.57.
